Data: patent publication US9598423B2 (BRISTOL-MYERS SQUIBB COMPANY, priority 2013, dated 2017)

How the values were obtained:
CK1δ = CK1δ (Homo sapiens (Human), UniProt P48730); experiment: CK1δ kinase assay (Caliper LABCHIP electrophoretic separation of fluoresceinated peptide substrate and product); format: biochemical; details: 200 pM CK1δ, 50 μM ATP, 1.5 μM peptide substrate, 22 hours at room temperature; read-out: CK1δ (IC50)
Procedure, shortened: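 Reactions ran 22 hours at room temperature and were stopped with EDTA. Phosphorylated product and unphosphorylated substrate were then separated electrophoretically. Compounds were tested at eleven concentrations, and IC50 values came from non-linear regression.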

CK1ε = CK1ε (Homo sapiens (Human), UniProt P49674); experiment: CK1ε kinase assay (Caliper LABCHIP electrophoretic separation of fluoresceinated peptide substrate and product); format: biochemical; details: 200 pM CK1ε, 50 μM ATP, 1.5 μM peptide substrate, 22 hours at room temperature; read-out: CK1ε (IC50)
Procedure: CK1ε and CK1δ Kinase Assays
The kinase assay was performed in V-bottom 384-well plates. […] The reaction was incubated at room temperature for 22 hours and terminated by adding 45 μl of 35 mM EDTA to each sample. The reaction mixture was analyzed on the Caliper LABCHIP®3000 (Caliper, Hopkinton, Mass.) by electrophoretic separation of the unphosphorylated substrate and phosphorylated product. […] Compounds were dissolved at 10 mM in dimethylsulfoxide (DMSO) and evaluated at eleven concentrations. IC50 values were derived by non-linear regression analysis.

CK1δ, sequence (P48730 whole entry): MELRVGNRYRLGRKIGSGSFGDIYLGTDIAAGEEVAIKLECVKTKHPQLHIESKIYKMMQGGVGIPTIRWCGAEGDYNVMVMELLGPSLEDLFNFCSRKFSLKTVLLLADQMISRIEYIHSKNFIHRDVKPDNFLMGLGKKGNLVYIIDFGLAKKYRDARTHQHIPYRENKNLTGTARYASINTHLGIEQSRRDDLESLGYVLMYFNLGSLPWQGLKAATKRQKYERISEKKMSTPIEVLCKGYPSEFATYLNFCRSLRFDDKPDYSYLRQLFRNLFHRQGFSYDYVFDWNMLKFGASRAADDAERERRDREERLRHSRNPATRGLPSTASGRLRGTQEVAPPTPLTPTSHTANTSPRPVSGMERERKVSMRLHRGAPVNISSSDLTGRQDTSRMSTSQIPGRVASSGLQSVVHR
CK1ε, sequence (P49674 whole entry): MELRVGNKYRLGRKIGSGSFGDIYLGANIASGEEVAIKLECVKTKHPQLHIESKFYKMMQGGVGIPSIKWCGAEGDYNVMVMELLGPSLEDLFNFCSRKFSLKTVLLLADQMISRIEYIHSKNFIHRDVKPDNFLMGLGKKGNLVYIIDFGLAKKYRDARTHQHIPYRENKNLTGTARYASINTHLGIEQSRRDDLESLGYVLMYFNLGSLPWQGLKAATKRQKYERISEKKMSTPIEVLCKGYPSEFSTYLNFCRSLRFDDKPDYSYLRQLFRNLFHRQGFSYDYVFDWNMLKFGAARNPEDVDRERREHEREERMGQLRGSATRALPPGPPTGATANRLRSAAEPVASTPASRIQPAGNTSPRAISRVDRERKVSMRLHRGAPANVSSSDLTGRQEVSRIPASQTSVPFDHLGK

Row | Structure (SMILES) | IC50 (CK1δ) [nM] | IC50 (CK1ε) [nM]
1 | NC(=O)c1c(-c2cccc(F)c2)nn2c1CN(C(=O)Nc1cc(C(F)(F)F)cc(C(F)(F)F)c1)CC2 [Compound 53, N^5-(3,5-Bis(trifluoromethyl)phenyl)-2-(3-fluorophenyl)-6,7-dihydropyrazolo[1,5-a]pyrazine-3,5(4H)-dicarboxamide] | 0.01 to 10 | 0.01 to 10
2 | COc1cc(NC(=O)N2CCn3nc(-c4cccc(F)c4)c(C(N)=O)c3C2)cc(OC)c1 [Compound 56, N^5-(3,5-Dimethoxyphenyl)-2-(3-fluorophenyl)-6,7-dihydropyrazolo[1,5-a]pyrazine-3,5(4H)-dicarboxamide] | 0.01 to 10 | 0.01 to 10
3 | NC(=O)c1c(-c2cccc(F)c2)nn2c1CN(C(=O)Nc1ccc(F)c(Cl)c1)CC2 [Compound 60, N^5-(3-Chloro-4-fluorophenyl)-2-(3-fluorophenyl)-6,7-dihydropyrazolo[1,5-a]pyrazine-3,5(4H)-dicarboxamide] | 0.01 to 10 | 0.01 to 10
4 | CC(C)(C)c1ccc(NC(=O)N2CCn3nc(-c4cccc(F)c4)c(C(N)=O)c3C2)cc1 [Compound 63, N^5-(4-(tert-Butyl)phenyl)-2-(3-fluorophenyl)-6,7-dihydropyrazolo[1,5-a]pyrazine-3,5(4H)-dicarboxamide] | 0.01 to 10 | 0.01 to 10
5 | NC(=O)c1c(-c2cccc(F)c2)nn2c1CN(C(=O)Nc1cc(F)c(F)c(F)c1)CC2 [Compound 70, 2-(3-Fluorophenyl)-N^5-(3,4,5-trifluorophenyl)-6,7-dihydropyrazolo[1,5-a]pyrazine-3,5(4H)-dicarboxamide] | 0.01 to 10 | 0.01 to 10
6 | NC(=O)c1c(-c2cccc(F)c2)nn2c1CN(C(=O)Nc1cccc(F)c1)CC2 [Compound 77, N^5,2-Bis(3-fluorophenyl)-6,7-dihydropyrazolo[1,5-a]pyrazine-3,5(4H)-dicarboxamide] | 0.01 to 10 | 0.01 to 10
7 | COc1cc(NC(=O)N2CCn3nc(-c4cccc(F)c4)c(C(N)=O)c3C2)ccc1C(F)(F)F [Compound 78, 2-(3-Fluorophenyl)-N^5-(3-methoxy-4-(trifluoromethyl)phenyl)-6,7-dihydropyrazolo[1,5-a]pyrazine-3,5(4H)-dicarboxamide] | 0.01 to 10 | 0.01 to 10
8 | CC12CC3CC(C)(C1)CC(NC(=O)N1CCn4nc(-c5cccc(F)c5)c(C(N)=O)c4C1)(C3)C2 [Compound 81, N^5-(3,5-Dimethyladamantan-1-yl)-2-(3-fluorophenyl)-6,7-dihydropyrazolo[1,5-a]pyrazine-3,5(4H)-dicarboxamide] | 0.01 to 10 | 0.01 to 10
9 | NC(=O)c1c(-c2cccc(F)c2)nn2c1CN(C(=O)Nc1ccnnc1)CC2 [Compound 82, 2-(3-Fluorophenyl)-N^5-(pyridazin-4-yl)-6,7-dihydropyrazolo[1,5-a]pyrazine-3,5(4H)-dicarboxamide] | 0.01 to 10 | 0.01 to 10
10 | NC(=O)c1c(-c2cccc(F)c2)nn2c1CN(C(=O)Nc1ccc(Cl)nc1)CC2 [Compound 85, N^5-(6-Chloropyridin-3-yl)-2-(3-fluorophenyl)-6,7-dihydropyrazolo[1,5-a]pyrazine-3,5(4H)-dicarboxamide] | 0.01 to 10 | 0.01 to 10
11 | NC(=O)c1c(-c2cccc(F)c2)nn2c1CN(C(=O)NC13CC4CC(O)(CC(F)(C4)C1)C3)CC2 (stereo not shown) [Compound 94, N^5-(3-Fluoro-5-hydroxyadamantan-1-yl)-2-(3-fluorophenyl)-6,7-dihydropyrazolo[1,5-a]pyrazine-3,5(4H)-dicarboxamide] | 0.01 to 10 | 0.01 to 10
12 | COC(=O)N1CCC(NC(=O)N2CCn3nc(-c4cccc(F)c4)c(C(N)=O)c3C2)CC1 [Compound 99, Methyl 4-(3-carbamoyl-2-(3-fluorophenyl)-4,5,6,7-tetrahydropyrazolo[1,5-a]pyrazine-5-carboxamido)piperidine-1-carboxylate] | 0.01 to 10 | 0.01 to 10
13 | CC(C)OC(=O)N1CCC(NC(=O)N2CCn3nc(-c4cccc(F)c4)c(C(N)=O)c3C2)CC1 [Compound 100, Isopropyl 4-(3-carbamoyl-2-(3-fluorophenyl)-4,5,6,7-tetrahydropyrazolo[1,5-a]pyrazine-5-carboxamido)piperidine-1-carboxylate] | 0.01 to 10 | 0.01 to 10
14 | CC(C)(OC(=O)N1CCC(NC(=O)N2CCn3nc(-c4cccc(F)c4)c(C(N)=O)c3C2)CC1)C(F)(F)F [Compound 101, 1,1,1-Trifluoro-2-methylpropan-2-yl 4-(3-carbamoyl-2-(3-fluorophenyl)-4,5,6,7-tetrahydropyrazolo[1,5-a]pyrazine-5-carboxamido)piperidine-1-carboxylate] | 0.01 to 10 | 0.01 to 10
15 | NC(=O)c1c(-c2cccc(F)c2)nn2c1CN(C(=O)NC1CCN(CCC(F)(F)F)CC1)CC2 [Compound 103, 2-(3-Fluorophenyl)-N^5-(1-(3,3,3-trifluoropropyl)piperidin-4-yl)-6,7-dihydropyrazolo[1,5-a]pyrazine-3,5(4H)-dicarboxamide] | 0.01 to 10 | 10 to 100
16 | CC(C)(C)NC(=O)N1CCn2nc(-c3cncc(F)c3)c(C(N)=O)c2C1 [Compound 113, N^5-(tert-Butyl)-2-(5-fluoropyridin-3-yl)-6,7-dihydropyrazolo[1,5-a]pyrazine-3,5(4H)-dicarboxamide] | 10 to 100 | 100 to 2000
17 | CC(C)(C)NC(=O)N1CCn2nc(-c3ccc(F)cc3F)c(C(N)=O)c2C1 [Compound 124, N^5-(tert-Butyl)-2-(2,4-difluorophenyl)-6,7-dihydropyrazolo[1,5-a]pyrazine-3,5(4H)-dicarboxamide] | 100 to 2000 | 100 to 2000
18 | COc1cc(Cl)cc(-c2nn3c(c2C(N)=O)CN(C(=O)NC(C)(C)C)CC3)c1 [Compound 152, N^5-(tert-Butyl)-2-(3-chloro-5-methoxyphenyl)-6,7-dihydropyrazolo[1,5-a]pyrazine-3,5(4H)-dicarboxamide] | 0.01 to 10 | 0.01 to 10

Now from value to compound:

Row | IC50 (CK1δ) [nM] | IC50 (CK1ε) [nM] | Structure (SMILES)
19 | 0.01 to 10 | 0.01 to 10 | NC(=O)c1c(-c2cccc(F)c2)nn2c1CN(C(=O)Nc1ccc(Oc3ccccc3)cc1)CC2 [Compound 58, 2-(3-Fluorophenyl)-N^5-(4-phenoxyphenyl)-6,7-dihydropyrazolo[1,5-a]pyrazine-3,5(4H)-dicarboxamide]
20 | 0.01 to 10 | 0.01 to 10 | NC(=O)c1c(-c2cccc(F)c2)nn2c1CN(C(=O)Nc1ccc3ccccc3c1)CC2 [Compound 59, 2-(3-Fluorophenyl)-N^5-(naphthalen-2-yl)-6,7-dihydropyrazolo[1,5-a]pyrazine-3,5(4H)-dicarboxamide]
21 | 0.01 to 10 | 0.01 to 10 | NC(=O)c1c(-c2cccc(F)c2)nn2c1CN(C(=O)Nc1ccc(-c3ccccc3)cc1)CC2 [Compound 62, N^5-([1,1′-Biphenyl]-4-yl)-2-(3-fluorophenyl)-6,7-dihydropyrazolo[1,5-a]pyrazine-3,5(4H)-dicarboxamide]
22 | 0.01 to 10 | 0.01 to 10 | COc1ccc(NC(=O)N2CCn3nc(-c4cccc(F)c4)c(C(N)=O)c3C2)cc1Cl [Compound 67, N^5-(3-Chloro-4-methoxyphenyl)-2-(3-fluorophenyl)-6,7-dihydropyrazolo[1,5-a]pyrazine-3,5(4H)-dicarboxamide]
23 | 0.01 to 10 | 0.01 to 10 | COc1cccc(NC(=O)N2CCn3nc(-c4cccc(F)c4)c(C(N)=O)c3C2)c1 [Compound 73, 2-(3-Fluorophenyl)-N^5-(3-methoxyphenyl)-6,7-dihydropyrazolo[1,5-a]pyrazine-3,5(4H)-dicarboxamide]
24 | 0.01 to 10 | 0.01 to 10 | CC(C)(C)C(=O)N1CCC(NC(=O)N2CCn3nc(-c4cccc(F)c4)c(C(N)=O)c3C2)CC1 [Compound 98, 2-(3-Fluorophenyl)-N^5-(1-pivaloylpiperidin-4-yl)-6,7-dihydropyrazolo[1,5-a]pyrazine-3,5(4H)-dicarboxamide]
25 | 0.01 to 10 | 0.01 to 10 | COc1cccc(-c2nn3c(c2C(N)=O)CN(C(=O)NC(C)(C)C)CC3)c1 [Compound 109, N^5-(tert-Butyl)-2-(3-methoxyphenyl)-6,7-dihydropyrazolo[1,5-a]pyrazine-3,5(4H)-dicarboxamide]
26 | 0.01 to 10 | 0.01 to 10 | CC(C)(C)NC(=O)N1CCn2nc(-c3cc(Cl)cc(Cl)c3)c(C(N)=O)c2C1 [Compound 117, N^5-(tert-Butyl)-2-(3,5-dichlorophenyl)-6,7-dihydropyrazolo[1,5-a]pyrazine-3,5(4H)-dicarboxamide]
27 | 0.01 to 10 | 0.01 to 10 | CC(C)(C)NC(=O)N1CCn2nc(-c3cnc4ccccc4c3)c(C(N)=O)c2C1 [Compound 119, N^5-(tert-Butyl)-2-(quinolin-3-yl)-6,7-dihydropyrazolo[1,5-a]pyrazine-3,5(4H)-dicarboxamide]
28 | 0.01 to 10 | 0.01 to 10 | CC(C)(C)NC(=O)N1CCn2nc(-c3ccc(Cl)c(Cl)c3)c(C(N)=O)c2C1 [Compound 129, N^5-(tert-Butyl)-2-(3,4-dichlorophenyl)-6,7-dihydropyrazolo[1,5-a]pyrazine-3,5(4H)-dicarboxamide]
29 | 0.01 to 10 | 0.01 to 10 | CC(C)(C)NC(=O)N1CCn2nc(-c3cncc(Cl)c3)c(C(N)=O)c2C1 [Compound 148, N^5-(tert-Butyl)-2-(5-chloropyridin-3-yl)-6,7-dihydropyrazolo[1,5-a]pyrazine-3,5(4H)-dicarboxamide]
